Data on 3 molecules can be found in patent US20220117993A1, “Compounds Useful in HIV Therapy” (GlaxoSmithKline Intellectual Property (No. 2) Limited, priority 2018, published 2022).

Data set [1] in a line: Rat pharmacokinetics, single intramuscular injection. It is filed as in vivo, Male Wistar Han rats. To be noted: single IM dose 20 mg/kg, suspension 10 mg/mL; EFdA in blood, FIG. 2 and 3. How it is done: The pharmacokinetics of Compounds 6 and 21 after a single intramuscular (IM) injection were evaluated in Male Wistar Han rats. The test compound was suspended in a 2% P407, 2% PEG3350, 3.5% Mannitol formulation at 10 mg/mL concentration. A single dose of 20 mg/kg of test compound was injected (2 mL/kg) IM into the right gastrocnemius muscle (n=3). Blood samples were collected via a lateral tail vein at the following time points: Day 1 [30 min, 1 h, 3 h, 5 h, 7 h], Days 2-5, Days 7, 10, 14, 17, 21, 24, 28, 31, 35, 38, 42, 45, 49, 52, 56, 59, 63, 66 and 70, etc. To evaluate test compound and EFdA concentrations, approximately 150 μL of blood was collected into a NaFL/Na2EDTA tube. Exactly 150 μL of blood was then pipetted into a new tube, mixed with 150 μL of 100 mM ammonium acetate pH4, (some of the prodrugs required mixing with 1.5 μL of FA as stabilizer), vortexed, immediately frozen on dry ice and stored at −80° C. until analysis. […] The supernatants were then analyzed by UPLC/MS-MS (Triple Quad™ 6500+). Pharmacokinetic parameters were evaluated using a non-compartmental model of the non-compartmental analysis tool, Pharsight Phoenix WinNonlin® 6.4 software.

Data set [2] relates to PSV with methionine 184 to valine (M184V) substitution in the reverse transcriptase gene. The data set is described as follows: microbe, parasite or virus in culture. To be noted: Human immunodeficiency virus 1, 72 h, read-out: M184V IC50. It is filed as cell-based, HIV.
Data set [3] relates to wild-type NL4-3 replication defective pseudovirus (PSV). Nature of the data set: microbe, parasite or virus in culture. The data set is classed as cell-based. To be noted: NL43, 72 h, U373 cells expressing human CD4 and CXCR4 or CCR5, luciferase signal after 3 days, mean IC50, read-out: WT IC50.

Turning to `C#C[C@]1(CO)O[C@@H](n2cnc3c(N)nc(F)nc32)C[C@@H]1OC(=O)CC(C)(C)c1c(C)cc(C)cc1OC(C)=O` [Example 21, (2R,3S,5R)-5-(6-amino-2-fluoro-9H-purin-9-yl)-2-ethynyl-2-(hydroxymethyl)tetrahydrofuran-3-yl 3-(2-acetoxy-4,6-dimethylphenyl)-3-methylbutanoate], in data set [1], the “sustained exposure to EFdA out to” value is listed as “does not afford a sustained release profile”. `C#C[C@]1(CO)O[C@@H](n2cnc3c(N)nc(F)nc32)C[C@@H]1OC(C)=O` [Example 1, (2R,3S,5R)-5-(6-amino-2-fluoro-9H-purin-9-yl)-2-ethynyl-2-(hydroxymethyl)tetrahydrofuran-3-yl acetate]: the IC50 was found to be 538 nM in data set [2] and 106 nM in data set [3].

For the molecule `C#C[C@]1(COC(=O)OCC)O[C@@H](n2cnc3c(N)nc(F)nc32)C[C@@H]1OC(=O)CCCCCCCCCCCCCCCCC` [Example 24, (2R,3S,5R)-5-(6-amino-2-fluoro-9H-purin-9-yl)-2-(((ethoxycarbonyl)oxy)methyl)-2-ethynyltetrahydrofuran-3-yl stearate], the IC50 in data set [2] came out at 2120 nM; in data set [3] it was 1270 nM.
